In PubChem BioAssay AID2060905 (Molecular Pharmacology Branch, DTP, NCI, 2025):

System: 282377-053-R-J1-PDC complex spheroid viability
Assay: Anticancer human tumor 282377-053-R-J1-PDC patient-derived colon adenocarcinoma cell line growth inhibition [RAS]
Conditions: for IC50: curve of first compound; for viability, T/C: stronger effect = lower value
Method in brief: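 Agents were tested in combination matrices in half-log decrements from a top concentration at or near clinical Cmax (10 microM if undetermined). Targets were multi-cell spheroids of tumour lines plus HUVEC and MSC stromal cells.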

[1] = second compound 0.000949 µM, first compound 0.00316 µM
[2] = second compound 0.000949 µM, first compound 0.01 µM
[3] = second compound 0.000949 µM, first compound 0.0316 µM
[4] = second compound 0.000949 µM, first compound 0.1 µM
[5] = second compound 0.003 µM, first compound 0.00316 µM
[6] = second compound 0.003 µM, first compound 0.01 µM
[7] = second compound 0.003 µM, first compound 0.0316 µM
[8] = second compound 0.003 µM, first compound 0.1 µM
[9] = second compound 0.00949 µM, first compound 0.00316 µM
[10] = second compound 0.00949 µM, first compound 0.01 µM
[11] = second compound 0.00949 µM, first compound 0.0316 µM
[12] = second compound 0.00949 µM, first compound 0.1 µM
[13] = second compound 0.03 µM, first compound 0.00316 µM
[14] = second compound 0.03 µM, first compound 0.01 µM
[15] = second compound 0.03 µM, first compound 0.0316 µM
[16] = second compound 0.03 µM, first compound 0.1 µM
[17] = second compound 0.0949 µM, first compound 0.00316 µM
[18] = second compound 0.0949 µM, first compound 0.01 µM
[19] = second compound 0.0949 µM, first compound 0.0316 µM
[20] = second compound 0.0949 µM, first compound 0.1 µM
[21] = second compound 0.3 µM, first compound 0.00316 µM
[22] = second compound 0.3 µM, first compound 0.01 µM
[23] = second compound 0.3 µM, first compound 0.0316 µM
[24] = second compound 0.3 µM, first compound 0.1 µM
[25] = second compound 0.000949 µM, first compound 0.316 µM
[26] = second compound 0.000949 µM, first compound 1 µM
[27] = second compound 0.000949 µM, first compound 3.16 µM
[28] = second compound 0.000949 µM, first compound 10 µM
[29] = second compound 0.003 µM, first compound 0.316 µM
[30] = second compound 0.003 µM, first compound 1 µM
[31] = second compound 0.003 µM, first compound 3.16 µM
[32] = second compound 0.003 µM, first compound 10 µM
[33] = second compound 0.00949 µM, first compound 0.316 µM
[34] = second compound 0.00949 µM, first compound 1 µM
[35] = second compound 0.00949 µM, first compound 3.16 µM
[36] = second compound 0.00949 µM, first compound 10 µM
[37] = second compound 0.03 µM, first compound 0.316 µM
[38] = second compound 0.03 µM, first compound 1 µM
[39] = second compound 0.03 µM, first compound 3.16 µM
[40] = second compound 0.03 µM, first compound 10 µM
[41] = second compound 0.0949 µM, first compound 0.316 µM
[42] = second compound 0.0949 µM, first compound 1 µM
[43] = second compound 0.0949 µM, first compound 3.16 µM
[44] = second compound 0.0949 µM, first compound 10 µM
[45] = second compound 0.3 µM, first compound 0.316 µM
[46] = second compound 0.3 µM, first compound 1 µM
[47] = second compound 0.3 µM, first compound 3.16 µM
[48] = second compound 0.3 µM, first compound 10 µM
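Note: spheroids exposed to agents for seven days before readout.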
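Throughout, for viability, T/C: luminescence viability as percent of DMSO vehicle control wells.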

Work on `CC(C)n1nc(-c2ccc3oc(N)nc3c2)c2c(N)ncnc21` + CCn1c(-c2cc(N3CCN(C)CC3)cnc2C(C)OC)c2c3cc(ccc31)-c1csc(n1)CC(NC(=O)C1CC1C)C(=O)N1CCCC(N1)C(=O)OCC(C)(C)C2 yielded an IC50 (second compound 0.000949 µM) greater than 0.1 µM, an IC50 (second compound 0.003 µM) of 0.0605 µM and an IC50 (second compound 0.00949 µM) of 0.0962 µM. It also gave an IC50 (second compound 0.03 µM) of 0.0438 µM, an IC50 (second compound 0.0949 µM) of 0.0451 µM and an IC50 (second compound 0.3 µM) greater than 0.1 µM. It also gave a viability, T/C (second compound 0.000949 µM, first compound 0.000316 µM) of 68.7%, a viability, T/C (second compound 0.000949 µM, first compound 0.001 µM) of 101% and a viability, T/C [1] of 86.2%. For the same molecule, the viability, T/C [2] was 74.5%, the viability, T/C [3] was 64.3% and the viability, T/C [4] was 50.4%. It also gave a viability, T/C (second compound 0.003 µM, first compound 0.000316 µM) of 103%, a viability, T/C (second compound 0.003 µM, first compound 0.001 µM) of 102% and a viability, T/C [5] of 77.8%. For the same molecule, the viability, T/C [6] was 72.1%, the viability, T/C [7] was 61.7% and the viability, T/C [8] was 42.1%. For the same molecule, the viability, T/C (second compound 0.00949 µM, first compound 0.000316 µM) was 96.1%, the viability, T/C (second compound 0.00949 µM, first compound 0.001 µM) was 102% and the viability, T/C [9] was 93.8%. It also gave a viability, T/C [10] of 73.4%, a viability, T/C [11] of 54.3% and a viability, T/C [12] of 49.5%. It also gave a viability, T/C (second compound 0.03 µM, first compound 0.000316 µM) of 104%, a viability, T/C (second compound 0.03 µM, first compound 0.001 µM) of 88% and a viability, T/C [13] of 88.9%. For the same molecule, the viability, T/C [14] was 62.4%, the viability, T/C [15] was 54% and the viability, T/C [16] was 43.5%. For the same molecule, the viability, T/C (second compound 0.0949 µM, first compound 0.000316 µM) was 100%, the viability, T/C (second compound 0.0949 µM, first compound 0.001 µM) was 84.9% and the viability, T/C [17] was 86.9%. The viability, T/C [18] was 60.7%, the viability, T/C [19] was 57.7% and the viability, T/C [20] was 39.5%. It also gave a viability, T/C (second compound 0.3 µM, first compound 0.000316 µM) of 90.3%, a viability, T/C (second compound 0.3 µM, first compound 0.001 µM) of 98.8% and a viability, T/C [21] of 78.3%. It also gave a viability, T/C [22] of 65.5%, a viability, T/C [23] of 58.9% and a viability, T/C [24] of 48.9%.
For `CC1(O)CCCC1n1c(=O)c(C(F)F)cc2cnc(NC3CCN(S(C)(=O)=O)CC3)nc21` (stereo not drawn) + CCn1c(-c2cc(N3CCN(C)CC3)cnc2C(C)OC)c2c3cc(ccc31)-c1csc(n1)CC(NC(=O)C1CC1C)C(=O)N1CCCC(N1)C(=O)OCC(C)(C)C2, the IC50 (second compound 0.000949 µM) was 6.75 µM, the IC50 (second compound 0.003 µM) was 7.15 µM and the IC50 (second compound 0.00949 µM) was 7.03 µM. It also gave an IC50 (second compound 0.03 µM) of 6.98 µM, an IC50 (second compound 0.0949 µM) of 6.92 µM and an IC50 (second compound 0.3 µM) of 7.08 µM. The viability, T/C [3] was 101%, the viability, T/C [4] was 141% and the viability, T/C [25] was 112%. The viability, T/C [26] was 155%, the viability, T/C [27] was 162% and the viability, T/C [28] was 6.35%. The viability, T/C [7] was 116%, the viability, T/C [8] was 117% and the viability, T/C [29] was 151%. For the same molecule, the viability, T/C [30] was 146%, the viability, T/C [31] was 204% and the viability, T/C [32] was 10.2%. For the same molecule, the viability, T/C [11] was 91.9%, the viability, T/C [12] was 115% and the viability, T/C [33] was 165%. It also gave a viability, T/C [34] of 153%, a viability, T/C [35] of 189% and a viability, T/C [36] of 9.24%. The viability, T/C [15] was 112%, the viability, T/C [16] was 104% and the viability, T/C [37] was 169%. The viability, T/C [38] was 182%, the viability, T/C [39] was 167% and the viability, T/C [40] was 6.22%. The viability, T/C [19] was 94.1%, the viability, T/C [20] was 141% and the viability, T/C [41] was 139%. It also gave a viability, T/C [42] of 141%, a viability, T/C [43] of 203% and a viability, T/C [44] of 5.83%. The viability, T/C [23] was 106%, the viability, T/C [24] was 134% and the viability, T/C [45] was 152%. It also gave a viability, T/C [46] of 190%, a viability, T/C [47] of 174% and a viability, T/C [48] of 6.62%.
`CCN1CCN(Cc2ccc(Nc3ncc(F)c(-c4cc(F)c5nc(C)n(C(C)C)c5c4)n3)nc2)CC1` + CCn1c(-c2cc(N3CCN(C)CC3)cnc2C(C)OC)c2c3cc(ccc31)-c1csc(n1)CC(NC(=O)C1CC1C)C(=O)N1CCCC(N1)C(=O)OCC(C)(C)C2 showed an IC50 (second compound 0.000949 µM) greater than 1 µM, an IC50 (second compound 0.003 µM) greater than 1 µM and an IC50 (second compound 0.00949 µM) greater than 1 µM. It also gave an IC50 (second compound 0.03 µM) greater than 1 µM, an IC50 (second compound 0.0949 µM) greater than 1 µM and an IC50 (second compound 0.3 µM) greater than 1 µM. The viability, T/C [1] was 101%, the viability, T/C [2] was 119% and the viability, T/C [3] was 98.1%. The viability, T/C [4] was 120%, the viability, T/C [25] was 188% and the viability, T/C [26] was 180%. The viability, T/C [5] was 102%, the viability, T/C [6] was 137% and the viability, T/C [7] was 114%. It also gave a viability, T/C [8] of 90.1%, a viability, T/C [29] of 142% and a viability, T/C [30] of 170%. It also gave a viability, T/C [9] of 115%, a viability, T/C [10] of 126% and a viability, T/C [11] of 96.2%. It also gave a viability, T/C [12] of 105%, a viability, T/C [33] of 108% and a viability, T/C [34] of 194%. For the same molecule, the viability, T/C [13] was 90.4%, the viability, T/C [14] was 106% and the viability, T/C [15] was 87.7%. The viability, T/C [16] was 105%, the viability, T/C [37] was 131% and the viability, T/C [38] was 212%. The viability, T/C [17] was 98.8%, the viability, T/C [18] was 112% and the viability, T/C [19] was 89.8%. For the same molecule, the viability, T/C [20] was 123%, the viability, T/C [41] was 146% and the viability, T/C [42] was 246%. The viability, T/C [21] was 102%, the viability, T/C [22] was 123% and the viability, T/C [23] was 123%. It also gave a viability, T/C [24] of 119%, a viability, T/C [45] of 162% and a viability, T/C [46] of 227%.
With `C[C@@H](NC(=O)c1ncnc(N)c1Cl)c1ncc(C(=O)Nc2cc(C(F)(F)F)c(Cl)cn2)s1` + CCn1c(-c2cc(N3CCN(C)CC3)cnc2C(C)OC)c2c3cc(ccc31)-c1csc(n1)CC(NC(=O)C1CC1C)C(=O)N1CCCC(N1)C(=O)OCC(C)(C)C2 the IC50 (second compound 0.000949 µM) was greater than 10 µM, the IC50 (second compound 0.003 µM) was greater than 10 µM and the IC50 (second compound 0.00949 µM) was greater than 10 µM. It also gave an IC50 (second compound 0.03 µM) greater than 10 µM, an IC50 (second compound 0.0949 µM) greater than 10 µM and an IC50 (second compound 0.3 µM) greater than 10 µM. It also gave a viability, T/C [3] of 82.7%, a viability, T/C [4] of 100% and a viability, T/C [25] of 80%. For the same molecule, the viability, T/C [26] was 82.7%, the viability, T/C [27] was 75.6% and the viability, T/C [28] was 68.8%. For the same molecule, the viability, T/C [7] was 89.8%, the viability, T/C [8] was 125% and the viability, T/C [29] was 81.8%. The viability, T/C [30] was 90.2%, the viability, T/C [31] was 70.6% and the viability, T/C [32] was 59.2%. It also gave a viability, T/C [11] of 110%, a viability, T/C [12] of 115% and a viability, T/C [33] of 85.8%. It also gave a viability, T/C [34] of 94%, a viability, T/C [35] of 68% and a viability, T/C [36] of 57.9%. For the same molecule, the viability, T/C [15] was 97.2%, the viability, T/C [16] was 106% and the viability, T/C [37] was 89.4%. For the same molecule, the viability, T/C [38] was 96%, the viability, T/C [39] was 63.2% and the viability, T/C [40] was 60.1%. It also gave a viability, T/C [19] of 110%, a viability, T/C [20] of 105% and a viability, T/C [41] of 77.1%. For the same molecule, the viability, T/C [42] was 94.2%, the viability, T/C [43] was 73.1% and the viability, T/C [44] was 74.2%. It also gave a viability, T/C [23] of 94.3%, a viability, T/C [24] of 103% and a viability, T/C [45] of 89.3%. The viability, T/C [46] was 108%, the viability, T/C [47] was 86.4% and the viability, T/C [48] was 61.2%.
